# Data taken from patent US7005429B2, “Method of treating estrogen receptor positive carcinoma with 17 α-dihydroequilin” (Wyeth, priority 1991, dated 2006).
# Where a name gives a salt, the structure may show the parent alone.
# Tests used:
# [1] = system: DMBA induced mammary carcinoma; assay: DMBA induced mammary carcinoma in rats, tumor size; assay type: in vivo, Sprague-Dawley female rats; details: rat
# Description: Rats were treated either with vehicle (control), 17α-dihydroequilin sulfate, or tamoxifen. In addition, one group of rats were ovariectomized after tumor development and then treated with vehicle. The animals were treated for a 4 week period. Tumor volumes were measured weekly.
# [2] = system: MCF-7 (estrogen receptor positive) human breast cancer cell line; assay: Cell cycle phase distribution by flow cytometric DNA analysis in MCF-7 cells; assay type: cell-based; details: for shift of cells from the resting G1 phase to the proliferative S phase (estrogenic activity): compound alone, 0.1 μM; for prevention of E2 induced proliferation (shift from G1 to S phase): in combination with E2; for % G1 / % G2/M / % S: 24 hours
# Description: (§1) In the in vitro standard pharmacological test procedure, 17α-dihydroequilin was evaluated as a representative compound in MCF-7 (estrogen receptor positive) and […] (estrogen receptor negative) human breast cancer cell lines to determine the effect of the compounds of this invention on cell proliferation as measured by the percent of the cells present in the G1, S, and G2/M phases of the cell cycle. Briefly, the cell lines were plated in T-25 tissue culture flasks at an initial density of between 50,000 and 100,000 cells/flask and incubated for a period of 24 hours in phenol-red free IMEM medium supplemented with dextran-coated-charcoal stripped fetal bovine serum (10%), glutamine (5 mg/mL) and gentamycin sulfate (2 mg/mL).
# [3] = system: MDA-231 (estrogen receptor negative) human breast cancer cell line; assay: Cell cycle phase distribution by flow cytometric DNA analysis in MDA-231 cells; assay type: cell-based; details: for % G1 / % G2/M / % S: 24 hours
# Description: as §1
# [4] = system: estrogen receptor positive MCF-7 human breast cancer cells; details: prevents cells from entering the S phase; cited from earlier work
# [5] = rat; 200 μg/day for 3 weeks; cited from earlier work
# [6] = test compound (0.1 nM) in combination with E2 (1 nM)
smiles,measurement,setting,value
"C[C@]12CC[C@H]3C(=CCc4cc(OS(=O)(=O)O)ccc43)[C@@H]1CC[C@H]2O [17α-DHEQ-S, 17α-Dihydroequilin sulfate]","percent change of tumor size from week 0, Week 1",[1]; daily dose 0.5 mg/kg,47.2%
same,"percent change of tumor size from week 0, Week 2",[1]; daily dose 0.5 mg/kg,75.9%
same,"percent change of tumor size from week 0, Week 3",[1]; daily dose 0.5 mg/kg,59.4%
same,"percent change of tumor size from week 0, Week 4",[1]; daily dose 0.5 mg/kg,111.6%
same,"percent change of tumor size from week 0, Week 1",[1]; daily dose 5.0 mg/kg,−18.2%
same,"percent change of tumor size from week 0, Week 2",[1]; daily dose 5.0 mg/kg,−21.2%
same,"percent change of tumor size from week 0, Week 3",[1]; daily dose 5.0 mg/kg,−8.2%
same,"percent change of tumor size from week 0, Week 4",[1]; daily dose 5.0 mg/kg,3.1%
same,"percent change of tumor size from week 0, Week 1",[1]; daily dose 25.0 mg/kg,−49.7%
same,"percent change of tumor size from week 0, Week 3",[1]; daily dose 25.0 mg/kg,−51.2%
same,"percent change of tumor size from week 0, Week 4",[1]; daily dose 25.0 mg/kg,−46.7%
C[C@]12CC[C@H]3C(=CCc4cc(O)ccc43)[C@@H]1CC[C@H]2O [17α-dihydroequilin],shift of cells from the resting G1 phase to the proliferative S phase (estrogenic activity),[2],did not cause a shift of cells from the resting G1 phase to the proliferative S phase
same,prevention of E2 induced proliferation (shift from G1 to S phase),[2],prevented the E2 induced proliferation
same,% G1,[2]; [6],42%
same,% G2/M,[2]; [6],15%
same,% S,[2]; [6],42%
same,% G1,[3]; [6],26%
same,% G2/M,[3]; [6],13%
same,% S,[3]; [6],60%
"C[C@]12CC[C@@H]3c4ccc(O)cc4CC[C@H]3[C@@H]1CC[C@@H]2O [E2, 17β-estradiol]",shift of cells from the G1 phase to the S phase (cell proliferation),[2]; E2 alone,caused cell proliferation
same,% G1,[2]; E2 alone,29%
same,% G2/M,[2]; E2 alone,5%
same,% S,[2]; E2 alone,66%
same,shift of cells from the G1 phase to the S phase (cell proliferation),[3]; E2 alone,this shift was not observed
same,% G1,[3]; E2 alone,38%
same,% G2/M,[3]; E2 alone,17%
same,% S,[3]; E2 alone,45%
"CC/C(=C(\c1ccccc1)c1ccc(OCCN(C)C)cc1)c1ccccc1 [Tamoxifen, Z-1-(4β-dimethylaminoethoxyphenyl) 1,2-diphenyl but-1-ene citratel]",shift of cells from the resting G1 phase to the proliferative S phase (estrogenic activity),[2],A similar result was observed
same,prevention of E2 induced proliferation (shift from G1 to S phase),[2],A similar result was obtained
same,% G1,[2]; [6],40%
same,% G2/M,[2]; [6],14%
same,% S,[2]; [6],46%
same,% G1,[3]; [6],28%
same,% G2/M,[3]; [6],14%
same,% S,[3]; [6],58%
same,reduction in tumor size (in words),[1]; 4 week treatment,caused a reduction in tumor size
same,"percent change of tumor size from week 0, Week 2",[1]; daily dose 2.0 mg/kg,−18.7%
same,"percent change of tumor size from week 0, Week 3",[1]; daily dose 2.0 mg/kg,−28.5%
same,"percent change of tumor size from week 0, Week 4",[1]; daily dose 2.0 mg/kg,−20.1%
same,inhibition of E2 stimulated cell growth,[4],inhibit cell E2 stimulated cell growth
same,accumulation of administered [3H]-E2 in tissue,[5],"prevents the accumulation of administered [^3H]-E2 in uterine, vaginal, and mammary tumor tissue"
